This test concerns the target T1, CAIX (Homo sapiens, UniProt Q16790).
T1 construct: gene CA9; hCAIX expressed in Xenopus oocytes; with rMCT4 (coexpressed)
Description: inhibition of CAIX-mediated increase in MCT4 transport (intracellular H+ microelectrodes, Xenopus oocytes). Format: cell-based.

`O=C1NS(=O)(=O)c2cc(-n3cc(CCO[C@H]4O[C@@H](CO)[C@@H](O)[C@H](O)[C@@H]4O)nn3)ccc21` [BGal2C, Beta-Galactose-2C] gave an IC50 of 89.9 ± 5.6 nM.

A word on the IC50: it is the concentration at which inhibition is half-maximal. A low value points to greater potency.

For the origin of these results see paper PMC11593560 (International Journal of Molecular Sciences, 2024).
